Common to all, as to experiment: Kinase panel profiling at 1 µmol/L (MSA or IMAP), percentage inhibition
Format in all cases: biochemical

Test [1] has as its target panel of 255 wild-type kinases (Homo sapiens, UniProt P49841). To be noted: kinase GSK3β; 1 µmol/L single concentration.
In test [2] the target is T1, panel of 255 wild-type kinases (Homo sapiens, UniProt Q15139).
T1 sequence (Q15139 1-912): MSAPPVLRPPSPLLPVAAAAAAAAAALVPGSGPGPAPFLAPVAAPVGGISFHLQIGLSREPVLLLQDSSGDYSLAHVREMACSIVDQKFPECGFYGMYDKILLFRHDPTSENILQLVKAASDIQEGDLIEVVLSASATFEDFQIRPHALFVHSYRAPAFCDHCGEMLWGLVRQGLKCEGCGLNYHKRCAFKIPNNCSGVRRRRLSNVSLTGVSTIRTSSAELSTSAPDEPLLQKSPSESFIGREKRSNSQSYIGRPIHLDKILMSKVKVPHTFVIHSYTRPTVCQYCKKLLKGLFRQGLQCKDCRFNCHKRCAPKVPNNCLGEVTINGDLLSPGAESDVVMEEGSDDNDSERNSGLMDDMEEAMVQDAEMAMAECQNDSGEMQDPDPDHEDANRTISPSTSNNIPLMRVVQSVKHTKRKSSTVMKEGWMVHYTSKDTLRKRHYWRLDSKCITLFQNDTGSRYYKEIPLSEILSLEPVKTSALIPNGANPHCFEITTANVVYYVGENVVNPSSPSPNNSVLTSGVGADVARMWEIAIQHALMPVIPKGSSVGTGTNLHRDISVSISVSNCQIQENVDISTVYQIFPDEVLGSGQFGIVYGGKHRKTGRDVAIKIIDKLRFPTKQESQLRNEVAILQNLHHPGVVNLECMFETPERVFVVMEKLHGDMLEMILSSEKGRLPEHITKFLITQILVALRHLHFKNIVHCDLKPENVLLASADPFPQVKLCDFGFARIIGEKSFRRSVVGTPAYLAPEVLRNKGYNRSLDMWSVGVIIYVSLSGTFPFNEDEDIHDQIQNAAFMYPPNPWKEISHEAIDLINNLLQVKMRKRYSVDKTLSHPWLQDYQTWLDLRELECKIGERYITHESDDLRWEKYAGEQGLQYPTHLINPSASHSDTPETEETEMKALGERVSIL
As to conditions: kinase PKD1; 1 µmol/L single concentration; read-out: %-inhibition at 1 µmol/L, PKD1.

The target in test [3] is panel of 255 wild-type kinases (Homo sapiens, UniProt P11802). As to conditions: CDK4/CycD3 kinase assay; 1 µmol/L single concentration; read-out: %-inhibition CDK4/CycD3.
Test [4] addresses T2, panel of 255 wild-type kinases (Homo sapiens, UniProt Q96PF2).
T2 sequence (Q96PF2 1-358): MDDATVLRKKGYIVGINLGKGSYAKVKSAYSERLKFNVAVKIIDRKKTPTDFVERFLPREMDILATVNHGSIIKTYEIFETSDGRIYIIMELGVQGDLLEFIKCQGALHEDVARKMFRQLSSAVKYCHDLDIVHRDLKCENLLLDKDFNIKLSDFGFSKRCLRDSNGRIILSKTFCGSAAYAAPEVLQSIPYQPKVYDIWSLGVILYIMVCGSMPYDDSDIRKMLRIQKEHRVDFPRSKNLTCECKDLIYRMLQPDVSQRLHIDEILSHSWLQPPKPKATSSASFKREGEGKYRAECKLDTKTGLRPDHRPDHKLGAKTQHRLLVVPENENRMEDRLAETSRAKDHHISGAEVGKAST
As to conditions: kinase TSSK2; 1 µmol/L single concentration; read-out: %-inhibition at 1 µmol/L, TSSK2.

Test [5] deals with panel of 255 wild-type kinases (Homo sapiens, UniProt P06213). To be noted: kinase INSR; 1 µmol/L single concentration; read-out: %-inhibition at 1 µmol/L, INSR.
The target in test [6] is panel of 255 wild-type kinases (Homo sapiens, UniProt Q16288). To be noted: kinase TRKC; 1 µmol/L single concentration; read-out: %-inhibition at 1 µmol/L, TRKC.
For test [7], the target named is panel of 255 wild-type kinases (Homo sapiens, UniProt Q7KZI7). To be noted: MARK2; 1 µmol/L single concentration; read-out: %-inhibition, MARK2.
Test [8] addresses panel of 255 wild-type kinases (Homo sapiens, UniProt Q14680). As to conditions: MELK; 1 µmol/L single concentration; read-out: %-inhibition, MELK.
Test [9] concerns the target panel of 255 wild-type kinases (Homo sapiens, UniProt Q15418). To be noted: kinase RSK1; 1 µmol/L single concentration; read-out: %-inhibition at 1 µmol/L, RSK1.
The target in test [10] is panel of 255 wild-type kinases (Homo sapiens, UniProt Q9P1W9). To be noted: kinase PIM2; 1 µmol/L single concentration; read-out: %-inhibition at 1 µmol/L, PIM2.
Test [11] has as its target T3, panel of 255 wild-type kinases (Homo sapiens, UniProt O15264).
T3 sequence (O15264 1-365): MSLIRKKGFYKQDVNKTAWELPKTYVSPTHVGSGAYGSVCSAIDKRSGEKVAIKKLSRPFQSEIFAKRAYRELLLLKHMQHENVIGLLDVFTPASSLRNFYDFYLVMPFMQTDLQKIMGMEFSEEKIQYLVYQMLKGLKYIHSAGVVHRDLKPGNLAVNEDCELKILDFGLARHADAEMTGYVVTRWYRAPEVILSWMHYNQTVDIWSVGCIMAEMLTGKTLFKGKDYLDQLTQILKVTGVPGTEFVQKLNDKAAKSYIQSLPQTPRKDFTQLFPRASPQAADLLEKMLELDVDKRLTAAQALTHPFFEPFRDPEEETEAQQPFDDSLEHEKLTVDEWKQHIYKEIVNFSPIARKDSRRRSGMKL
As to conditions: p38δ; 1 µmol/L single concentration; read-out: %-inhibition, p38δ.

For test [12], the target named is panel of 255 wild-type kinases (Homo sapiens, UniProt P35916). As to conditions: kinase FLT4; 1 µmol/L single concentration; read-out: %-inhibition at 1 µmol/L, FLT4.

Turning to `Cc1cc(Nc2ncnc3ccc(NC4=NC(C)(C)CO4)cc23)ccc1Oc1ccn2ncnc2c1` [tucatinib], the inhibition at 1 µM was 8% in test [1]; 28% in test [2]; -2% in [3]; -0.922% in test [4]; 3% in test [5]; 2.53% in [6]. In addition, the inhibition at 1 µM in [7] is -12%; in test [8], 0.809%; in test [9] it was -4.66%; in test [10], -3.72%; in test [11], -0.0555%; in test [12], 13%.

With `C=CC(=O)N1CCC([C@@H]2CCNc3c(C(N)=O)c(-c4ccc(Oc5ccccc5)cc4)nn32)CC1` [zanubrutinib], the inhibition at 1 µM in [1] was -9%; in [2] it was 5%; in test [3], -1.7%; in [4], 0.571%; in test [5], 4%; in test [6], -3.55%. The inhibition at 1 µM in [7] is -21%; in [8], -0.631%; in test [9], -2.79%; in [10], -7%; in test [11], -6.43%; in test [12], 6.34%.

Source of the values: paper PMC9516332 (Frontiers in Oncology, 2022).
